For this assay, the species on record is Mus musculus. Nature of the assay: Inhibitory activity against nitric oxide production induced by interferon-gamma (IFN-gamma) in mouse macrophages. Format: functional.

For 13 compounds, IC50 results are on record in ChEMBL document CHEMBL1135447, “Design and synthesis of tricyclic compounds with enone functionalities in rings A and C: a novel class of highly active inhibitors of nitric oxide production in mouse macrophages” (J Med Chem, 2002).

One may read the IC50 as the concentration that gives 50% inhibition. A low value points to higher potency. In turn, `CC(=O)O[C@@H]1CC(=O)C=C2[C@@]3(C)C=C(C#N)C(=O)C(C)(C)[C@@H]3CC[C@]21C` (racemic) had a 50% inhibitory concentration (IC50) (Mus musculus) of 0.053 µM. Compound `CC1(C)CC[C@]2(C(=O)O)CC[C@]3(C)[C@H](C(=O)C=C4[C@@]5(C)C=C(C#N)C(=O)C(C)(C)[C@@H]5CC[C@]43C)[C@@H]2C1` [BARDOXOLONE] yielded an IC50 (Mus musculus) of 0.0005 µM.

Regarding `COC(=O)C1=C[C@]2(C)CC[C@H]3C(C)(C)C(=O)C(C#N)=C[C@]3(C)C2=CC1=O` (racemic), under “Mus musculus”, the 50% inhibitory concentration (IC50) turned out to be 0.091 µM.

For the setting “Mus musculus”, `CC1(C)CC[C@]2(C(=O)O)CC[C@]3(C)C(=CC[C@@H]4[C@@]5(C)CC[C@H](O)C(C)(C)[C@@H]5CC[C@]43C)[C@@H]2C1` [OLEANOLIC_ACID] showed an IC50 of more than 40 µM. Still for that read-out and setting: next, `CC(=O)O[C@@H]1CCC=C2[C@@]3(C)C=C(C#N)C(=O)C(C)(C)[C@@H]3CC[C@]21C` (racemic): 0.48 µM; `CC1(C)C(=O)C(C#N)=C[C@]2(C)C3=CC(=O)C=C[C@]3(C)CC[C@@H]12` (racemic): 0.061 µM. On the same count and under the same terms, with `CC1(C)C(=O)C(C#N)=C[C@]2(C)C3=CC(=O)C(C(N)=O)=C[C@]3(C)CC[C@@H]12` (racemic) the figure was 0.061 µM; with `CC1(C)C(=O)C(C#N)=C[C@]2(C)C3=CCC[C@@H](O)[C@]3(C)CC[C@@H]12` (racemic), 0.31 µM.

Compound `CC1(C)C(=O)C(C#N)=C[C@]2(C)C3=CC(=O)C=C[C@]3(C)CC[C@@H]12` (stereo in doubt; (+)-6) had an IC50 of 0.058 µM. That is a double-digit nanomolar value. With `CC1(C)C(=O)C(C#N)=C[C@]2(C)C3=CC(=O)C(C#N)=C[C@]3(C)CC[C@@H]12` (racemic), the IC50 (Mus musculus) was 0.0021 µM. With `CC1(C)C(=O)C(C#N)=C[C@]2(C)C3=CC(=O)C=C[C@]3(C)CC[C@@H]12` (stereo in doubt; (-)-6), 0.064 µM corresponded to half-maximal inhibition (IC50). Consider `CC1(C)C(=O)C(C#N)=C[C@]2(C)C3=CC(=O)C(C(=O)O)=C[C@]3(C)CC[C@@H]12` (racemic), for which, where the note is “Mus musculus”, the IC50 came out at 1.6 µM. Still for that read-out and setting: next, `CC1(C)C(=O)C(C#N)=C[C@]2(C)C3=CC(=O)C[C@@H](O)[C@]3(C)CC[C@@H]12` (racemic): 0.075 µM.
